{"source": "patent US5110935A", "about": "“New compounds which are active against the tissue forms of malaria and method of preparation” (Ire-Celltarg, S.A., priority 1988, dated 1992)", "key": {"[1]": {"experiment": "Stability in the presence of fetal calf serum", "type": "in vitro ADME", "details": "37° C.", "protocol": "The influence of serum on the stability of primaquine (PQ) and its derivatives is determined by incubating these compounds at 37° C. at a concentration of 100 μg/ml in 95% fetal calf serum (FCS, Flow Laboratories) or human serum and phosphate-buffered saline (0.15 M PBSA, pH 7.2) as a control. All the solutions are sterilized by filtration on a Millipore filter (Millex GV) of porosity 0.20 μm.\nAt interval of time, 1-ml samples are withdrawn and the serum proteins are then extracted from them by precipitation with acetonitrile. For this purpose, an identical volume of acetonitrile is added to each sample. After vigorous mixing in a Vortex mixer, the samples are left for 1 hour at 4° C. and protected from light and then centrifuged for 5 minutes at 12,000 g. The supernatants are collected and then analyzed by HPLC (20- to 50-μl aliquot) under the standard conditions.\nThe results for the stability of primaquine and its two derivatives in the presence of fetal calf serum are recorded in Table 1; the results are expressed as a % of the initial concentration (time 0) after extraction.\n^a : The compounds are incubated at 37° C. in the presence of\nfetal calf serum (95% final) and then analyzed by spectrophotometry after\n^b : The results represent the relative concentration of primaquine\n(PQ) and of derivatives (PQX) in terms of the incubation time, expressed\nas a percentage of the initial concentration (time 0) after extraction"}, "[2]": {"experiment": "Acute toxicity in mice after a single i.v. administration", "type": "in vivo", "details": "mouse, in vivo, iv, single i.v., mg PQ diphosphate equivalent/kg", "protocol": "(§1) The acute toxicity in terms of a single administered dose is determined on female Swiss OF1 mice weighing 22 to 25 g. A series of dilutions of each compound is injected intravenously into groups of 10 mice (0.1 ml per 10 g of weight).\n(§2) The lethal dose for 50% of mice (LD50) is determined by linear regression of the logits of the percentage of surviving animals as a function of the logarithm of the dose injected (in mg PQ diphosphate equivalent/kg) (Logit Weighted Transformation, Berkson J., 1953; J. Am. Stat. Assoc. 48, 565-599).\n(§3) ^a : The products are administered i.v. to groups of 10 female Swiss\n(§4) ^b : Maximum tolerated dose (MTD), defined as the highest dose\n(§5) The acute toxicity in terms of a single administered dose is determined under the same conditions and according the protocol of Example 3."}, "[3]": {"test_system": "female Swiss OF1 mice", "experiment": "Acute toxicity in mice after a single i.v. administration", "type": "in vivo", "protocol": "as §1, §2, §3, §4, §5"}, "[4]": {"test_system": "Plasmodium berghei", "experiment": "Causal prophylactic activity on OF1 mice infected with Plasmodium berghei", "type": "in vivo, P. berghei (ANKA), in Swiss OF1 mice", "protocol": "Primaquine and its derivatives are tested in the model of malaria in rodents employing the infection of mice with Plasmodium berghei, the sporozoites originating from infected Anopheles stephensi mosquitoes. This model, developed by Most H., Herman R. & Schoenfeld C. (1967), Am. J. Trop. med. Hyg. 16, 572-575, enables the casual prophylatic (tissue schizonticidal) activity of new therapeutic compounds to be determined.\nThe procedure used is that derived from Most H. & Montuori W.A. (1975), Am. J. Trop. Med. Hyg. 24, 179-189. It involves the system P. berghei (ANKA)/Anopheles stephensi/Swiss OF1 mice. The ANKA strain of P. b. berghei is maintained cyclically on Anopheles stephensi. The Swiss OF1 strain mouse is especially sensitive to P. b. berghei, which produces an invariably fatal infection.\nThe legs, wings and abdomen are removed from female mosquitoes (80 to 100 individuals per preparation) and the latter are then homogenized at 4° C. in MEM medium (GIBCO) containing 10% of fetal calf serum using a glass Potter. The sporozoite suspension is then purified from the mosquito debris by two successive centrifugations (2 min at 50 g and 5 min at 200 g) and the collected supernatant is stored at 4° C. After counting in a Petroff-Hausser chamber, the number of parasites is adjusted by dilution with the same cold medium to a density of 2×10^5 sporozoites/ml.\nThe causal prophylactic activity of the compounds, that is to say the dose enabling 50% of the infected animals to be cured (CPD50) is obtained by analysis of the logits of the response (expressed as a % LTS) as a function of the dose (mg PQ/kg).\nA volume of 0.5 ml of the suspension containing 10^5 sporozoites is injected i.v. into female Swiss OF1 mice weighing 20 to 25 g, used for the therapeutic tests. 1.2. Chemotherapeutic treatments\nGroups of 20 to 25 mice, infected as described above, are treated with a single intravenous injection of primaquine diphosphate (PQ) or of its two derivatives in hydrochloride form, three hours after inoculation of the sporozoites. The volume injected is adjusted according to the weight of the mouse, on the basis of 0.25 ml for a weight of 25 g. The compounds are diluted in phosphatebuffered saline (PBS), pH 7.0, and the pH is adjusted to 7.0. Infected but untreated mice (5 per group), receive the buffer alone and serve to monitor the infectivity of the sporozoites.\nThe experimental mice are kept for a period of 50 days. The development of the parasitemia is followed by daily examination of blood smears stained for 60 min with 5% Giemsa in Sorensen buffer at pH 7.2, from day 5 up to day 15. The number of infected animals can thus be determined.\nThe animals infected using P. berchei sporozoites are treated three hours later with a single i.v. injection of the compounds. This test enables the casual prophylactic activity of the compounds, that is the dose enabling 50% of the infected animals to be cured (CPD50), to be defined. The dose is always expressed as mg of PQ diphosphate per kg.\nThe animals infected using P. berghei sporozoites are treated three hours later with a single i.v. injection of the compounds. This test enables the casual prophylactic activity of the compounds, that is the dose enabling 50% of the infected animals to be cured (CPD50), to be defined. The dose is always expressed as mg of PQ diphosphate per kg."}, "[5]": {"details": "single i.v. three hours after sporozoites, mg PQ diphosphate equivalent/kg"}}}
{"smiles": "COc1cc(NC(C)CCCNC(=O)[C@@H]2CCC(=O)N2)c2ncccc2c1", "note": "(stereo partly drawn) [pGLU-PQ, N-(α-L-pyroglutamyl)primaquine]", "values": [{"measurement": "remaining at 1 h", "setting": "[1]; bovine, fetal calf serum 95%, 1 h, read-out: Relative concentration of compound (% of initial concentration)", "value": 100, "unit": "%"}, {"measurement": "metabolised at 1 h", "setting": "[1]; bovine, fetal calf serum 95%, 1 h, read-out: Relative concentration of primaquine (PQ) from derivative", "value": 0, "unit": "%"}, {"measurement": "remaining at 2 h", "setting": "[1]; bovine, fetal calf serum 95%, 2 h, read-out: Relative concentration of compound (% of initial concentration)", "value": 101, "unit": "%"}, {"measurement": "metabolised at 2 h", "setting": "[1]; bovine, fetal calf serum 95%, 2 h, read-out: Relative concentration of primaquine (PQ) from derivative", "value": 0, "unit": "%"}, {"measurement": "remaining at 3 h", "setting": "[1]; bovine, fetal calf serum 95%, 3 h, read-out: Relative concentration of compound (% of initial concentration)", "value": 105, "unit": "%"}, {"measurement": "metabolised at 3 h", "setting": "[1]; bovine, fetal calf serum 95%, 3 h, read-out: Relative concentration of primaquine (PQ) from derivative", "value": 0, "unit": "%"}, {"measurement": "remaining at 6 h", "setting": "[1]; bovine, fetal calf serum 95%, 6 h, read-out: Relative concentration of compound (% of initial concentration)", "value": 103, "unit": "%"}, {"measurement": "metabolised at 6 h", "setting": "[1]; bovine, fetal calf serum 95%, 6 h, read-out: Relative concentration of primaquine (PQ) from derivative", "value": 0, "unit": "%"}, {"measurement": "remaining at 24 h", "setting": "[1]; bovine, fetal calf serum 95%, 24 h, read-out: Relative concentration of compound (% of initial concentration)", "value": 107, "unit": "%"}, {"measurement": "metabolised at 24 h", "setting": "[1]; bovine, fetal calf serum 95%, 24 h, read-out: Relative concentration of primaquine (PQ) from derivative", "value": 0, "unit": "%"}, {"measurement": "remaining at 48 h", "setting": "[1]; bovine, fetal calf serum 95%, 48 h, read-out: Relative concentration of compound (% of initial concentration)", "value": 87, "unit": "%"}, {"measurement": "metabolised at 48 h", "setting": "[1]; bovine, fetal calf serum 95%, 48 h, read-out: Relative concentration of primaquine (PQ) from derivative", "value": 0, "unit": "%"}, {"measurement": "Relative concentration of compound (% of initial concentration)", "setting": "[1]; fetal calf serum 95%, 0 h", "value": 100, "unit": "%"}, {"measurement": "Relative concentration of primaquine (PQ) from derivative", "setting": "[1]; fetal calf serum 95%, 0 h", "value": 0, "unit": "%"}, {"measurement": "Stability in the presence of serum", "setting": "[1]; serum", "value": "undergoes no modification"}, {"measurement": "LD50", "setting": "[2]", "value": 159, "unit": "mg/kg"}, {"measurement": "MTD", "setting": "[2]; weight loss not exceeding 5% during 5 days, read-out: Maximum tolerated dose (MTD)", "value": 126, "unit": "mg/kg"}, {"measurement": "Fold less toxic than PQ", "setting": "[3]; mice, i.v.", "value": "at least 5 -fold"}, {"measurement": "LD50", "setting": "[3]; single i.v., mg PQ diphosphate equivalent/kg", "value": "159 (6) mg/kg"}, {"measurement": "Maximum tolerated dose (MTD)", "setting": "[3]; single i.v., mg PQ diphosphate equivalent/kg, weight loss not exceeding 5% during 5 days", "value": "126 (13) mg/kg"}, {"measurement": "ED50", "setting": "[4]; Plasmodium berghei, iv, 3 h, single i.v. three hours after sporozoites, mg PQ diphosphate equivalent/kg, read-out: CPD50, causal prophylactic dose curing 50% of the infected and treated animals", "value": 10, "unit": "mg/kg"}, {"measurement": "ED100", "setting": "[4]; Plasmodium berghei, iv, 3 h, single i.v. three hours after sporozoites, mg PQ diphosphate equivalent/kg, read-out: ED100, totally curative dose", "value": 22, "unit": "mg/kg"}, {"measurement": "minimal effective dose", "setting": "[4]; Plasmodium berghei, iv, 3 h, single i.v. three hours after sporozoites, mg PQ diphosphate equivalent/kg, read-out: Minimal effective dose (MED)", "value": 4.6, "unit": "mg/kg"}, {"measurement": "CPD50, fold lower than for PQ", "setting": "[4]; iv", "value": "1.9 -fold"}, {"measurement": "Activity relative to PQ, fold as active", "setting": "[4]; model of malaria in mice", "value": "at least 1.9 -fold"}, {"measurement": "PQ index", "setting": "[4]; ratio CPD50 of PQ/CPD50 of the compound", "value": 1.87}, {"measurement": "CPD50, causal prophylactic dose curing 50% of the infected and treated animals", "setting": "[4]; [5]", "value": "10.0 (0.7) mg/kg"}, {"measurement": "ED100, totally curative dose", "setting": "[4]; [5]", "value": "21.8 (5.7) mg/kg"}]}
